Columns and labels:
[1] = target: T1, type VI-S porcine pancreatic lipase (Sus scrofa, UniProt P00591); assay: Pancreatic lipase assay (pH-stat titration, triolein substrate); type: biochemical; set-up: Ymax: unit not given here; conditions: for k / Ymax: 7.0 nM lipase, 700 nM inhibitor, pH 8.0; for k: k fitted for the 12.5 min after inhibitor addition, Y=Ymax*(1-exp(-k*X)); for Ymax: Ymax of the fit Y=Ymax*(1-exp(-k*X)); for inhibition at 0.7 µM: 12.5 min
T1 construct: purchased Sigma type VI-S (catalogue number not given)
T1 sequence (P00591 1-450): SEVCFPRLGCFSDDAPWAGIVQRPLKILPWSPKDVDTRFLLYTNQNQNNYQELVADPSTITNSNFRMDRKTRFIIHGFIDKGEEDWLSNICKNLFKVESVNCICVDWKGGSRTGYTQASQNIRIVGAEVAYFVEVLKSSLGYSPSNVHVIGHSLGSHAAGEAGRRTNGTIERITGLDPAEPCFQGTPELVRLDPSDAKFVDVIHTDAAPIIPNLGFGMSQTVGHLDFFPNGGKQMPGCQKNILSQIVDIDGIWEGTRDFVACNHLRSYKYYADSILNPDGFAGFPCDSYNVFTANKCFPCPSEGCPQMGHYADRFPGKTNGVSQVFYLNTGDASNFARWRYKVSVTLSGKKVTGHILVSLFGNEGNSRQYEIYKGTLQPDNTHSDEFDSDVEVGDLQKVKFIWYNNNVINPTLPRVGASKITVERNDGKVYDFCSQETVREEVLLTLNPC
Description: The use of a pancreatic lipase assay has been described in the literature (Hadvary, P. et al. Biochem. J. (1988) 256: 357-361; Hadvary, P. et al. Biochem. J. (1991) 266:2021-2027). Pancreatic lipase activity was measured using a 718 Stat Titrino (Brinkmann) programmed to maintain a pH of 8.0 using 0.1 N NaOH. The substrate mixture (pH 8) contained 1 mM taurochenodeoxycholate (Sigma), 9 mM taurodeoxycholate (Sigma), 0.1 mM cholesterol (Sigma), 1 mM phosphatidylcholine (Sigma), 1.5% BSA, 2 mM Tris base, 100 mM NaCl, 10 mM CaCl2, and 3% triolein (Sigma). The mixture (5 mL) was emulsified via sonication at room temperature, and added to the titration vessel with rapid stirring. The Stat Titrino was turned on and lipase (7.0 nM type VI-S porcine pancreatic lipase (Sigma) dissolved in PBS) was added to the vessel. After 10 min, inhibitor (700 nM dissolved in 100% DMSO) was added and the reaction continued for an additional 12.5 min. The k values were determined for the 12.5 min after the addition of the inhibitor using a one phase exponential association equation, Y=Ymax*(1−exp(−k*X)), k values for lipase alone were 0.0004±0.0001 sec. The k values for compounds disclosed herein are >0.0004±0.0001 sec.

SMILES | k [1] | melting point | Ymax [1] | inhibition at 0.7 µM [1]
CCCCCCCCCCCCNc1nc2sc(C(=O)NCCCCCCCC)c(C)c2c(=O)o1 [Entry 24, 2-Dodecylamino-5-methyl-4-oxo-4H-thieno[2,3-d][1,3]oxazine-6-carboxylic acid octylamide] | 1.849 10-3.s-1 | 137.1 to 138 °C |  | 
CCCCCCCCCCCCCCNc1nc2sc(C(=O)NCCCCCCCC)c(C)c2c(=O)o1 [Entry 25, 5-Methyl-4-oxo-2-tetradecylamino-4H-thieno[2,3-d][1,3]oxazine-6-carboxylic acid octylamide] | 1.629 10-3.s-1 | 145 to 145.8 °C |  | 
CCCCCCCCCCCCCCCCNc1nc2sc(C(=O)NCCCCCCCC)c(C)c2c(=O)o1 [Entry 26, 2-Hexadecylamino-5-methyl-4-oxo-4H-thieno[2,3-d][1,3]oxazine-6-carboxylic acid octylamide] | 1.709 10-3.s-1 | 146.3 to 147 °C |  | 
CCCCCCCCNc1nc2sc(C(=O)NC)c(C)c2c(=O)o1 [Entry 31, 5-Methyl-2-octylamino-4-oxo-4H-thieno[2,3-d][1,3]oxazine-6-carboxylic acid methylamide] | 0.777 10-3.s-1 | 152.5 to 158 °C |  | 
CCCCCCCCNc1nc2sc(C(=O)NCc3cccnc3)c(C)c2c(=O)o1 [Entry 35, 5-Methyl-2-octylamino-4-oxo-4H-thieno[2,3-d][1,3]oxazine-6-carboxylic acid (pyridin-3-ylmethyl)amide] | 1.544 10-3.s-1 | 148 to 150 °C |  | 
CCCCCCCCNC(=O)Nc1sc(C(=O)N2CCN(Cc3ccccc3)CC2)c(C)c1C(=O)O [Entry 37, 5-(4-Benzyl-piperazine-1-carbonyl)-4-methyl-2-(3-octyl-ureido)-thiophene-3-carboxylic acid] | 0.574 10-3.s-1 | 193.5 to 195 °C (dec.) | 0.211 | 
CCCCCCCCNc1nc2sc(C(=O)OC(CCCC)CCCC)c(C)c2c(=O)o1 [Entry 39, 5-Methyl-2-octylamino-4-oxo-4H-thieno[2,3-d][1,3]oxazine-6-carboxylic acid 1-butyl-pentyl ester] | 1.253 10-3.s-1 | 90 to 92 °C | 0.156 | 
CCCCCCCCNc1nc2sc(C(=O)N(CCCCCCCC)CCCCCCCC)c(C)c2c(=O)o1 [Entry 41, 5-Methyl-2-octylamino-4-oxo-4H-thieno[2,3-d][1,3]oxazine-6-carboxylic acid dioctylamide] | 1.050 10-3.s-1 | 48 to 50 °C | 0.130 | 
CCCCCCCCNc1nc2sc(C(=O)N(CCCCCC)CCCCCC)c(C)c2c(=O)o1 [Entry 42, 5-Methyl-2-octylamino-4-oxo-4H-thieno[2,3-d][1,3]oxazine-6-carboxylic acid dihexylamide] | 1.123 10-3.s-1 | 42 to 45 °C | 0.124 | 
CCCCCCCCNc1nc2sc(C(=O)N3CCC(Cc4ccccc4)CC3)c(C)c2c(=O)o1 [Entry 43, 6-(4-Benzyl-piperidine-1-carbonyl)-5-methyl-2-octylamino-thieno[2,3-d][1,3]oxazin-4-one] | 0.009 10-3.s-1 | 100 to 106 °C |  | 
CCCCCCCCNc1nc2sc(C(=O)NCC(=O)OCc3ccccc3)c(C)c2c(=O)o1 [Entry 48, [(5-Methyl-2-octylamino-4-oxo-4H-thieno[2,3-d][1,3]oxazine-6-carbonyl)-amino]-acetic acid benzyl ester] | 0.440 10-3.s-1 | 147 to 149 °C |  | 
CCCCCCN(C)c1nc2sc(C(=O)OCc3ccccc3)c(C)c2c(=O)o1 [Entry 57, 2-(Hexyl-methyl-amino)-5-methyl-4-oxo-4H-thieno[2,3-d][1,3]oxazine-6-carboxylic acid benzyl ester] | 0.070 10-3.s-1 | 86 to 88 °C |  | 
CCCCCCCCNc1nc2sc(C(=O)NCC(C)(C)C)c(C)c2c(=O)o1 [Entry 58] | 0.723 10-3.s-1 | 173 to 174.5 °C |  | 
CCCCC(CCCC)Nc1nc2sc(C(=O)OCc3ccccc3)c(C)c2c(=O)o1 [Entry 59, 2-(1-Butyl-pentylamino)-5-methyl-4-oxo-4H-thieno[2,3-d][1,3]oxazine-6-carboxylic acid benzyl ester] | 0.222 10-3.s-1 | 136 to 138 °C |  | 
CCCCCCCCNc1nc2sc(CCCCCCC)cc2c(=O)o1 [Entry 61, 6-Heptyl-2-octylamino-thieno[2,3-d][1,3]oxazin-4-one] | 0.247 10-3.s-1 | 89 to 91 °C | 0.460 | 
CCCCCCCCNc1nc2sc(Cc3ccccc3)cc2c(=O)o1 [Entry 62, 6-Benzyl-2-octylamino-thieno[2,3-d][1,3]oxazin-4-one] | 0.103 10-3.s-1 | 123 to 124 °C | 1.901 | 
CCCCCCCCNc1nc2sc(CCCC)cc2c(=O)o1 [Entry 63, 6-Butyl-2-octylamino-thieno[2,3-d][1,3]oxazin-4-one] | 0.074 10-3.s-1 | 93 to 94 °C | 10.091 | 
CCCCCCCCNc1nc2sc(C(=O)N3CCc4cc(OC)c(OC)cc4C3)c(C)c2c(=O)o1 [Entry 65, 6-(6,7-Dimethoxy-3,4-dihydro-1H-isoquinoline-2-carbonyl)-5-methyl-2-octylamino-thieno(2,3-d)(1,3)oxazin-4-one] | 0.284 10-3.s-1 | 77 to 80 °C | 0.339 | 
CCCCCCCCNc1nc2sc(C(=O)NCc3ccc(OC)c(OC)c3)c(C)c2c(=O)o1 [Entry 66, 5-Methyl-2-octylamino-4-oxo-4H-thieno(2,3-d)(1,3)oxazine-6-carboxylic acid (2-(3,4-dimethoxy-phenyl)-methyl)-amide] | 1.027 10-3.s-1 | 159 to 163 °C | 0.118 | 
CCCCCCCCNc1nc2sc(C(=O)NCc3ccc4c(c3)OCO4)c(C)c2c(=O)o1 [Entry 69, 5-Methyl-2-octylamino-4-oxo-4H-thieno(2,3-d)(1,3)oxazine-6-carboxylic acid (2-benzo(1,3)dioxol-5-yl-methyl)-amide] | 1.137 10-3.s-1 | 149 to 152 °C | 0.112 | 
CCCCCCCCOc1nc2sc(CCCCCCC)c(C)c2c(=O)o1 [Entry 74, 6-Heptyl-5-methyl-2-octyloxy-thieno[2,3-d][1,3]oxazin-4-one] | 0.422 10-3.s-1 | 29 to 31 °C | 0.982 | 
CCCCCCCCNc1nc2sc(C(=O)NCCCCc3ccccc3)c(C)c2c(=O)o1 [Entry 79, 5-Methyl-2-octylamino-4-oxo-4H-thieno(2,3-d)(1,3)oxazine-6-carboxylic acid (4-phenyl-butyl)-amide] |  | 153 to 154 °C |  | 69.5%
CCCCCCCCNc1nc2sc(C(=O)NCCCc3ccccc3)c(C)c2c(=O)o1 [Entry 80, 5-Methyl-2-octylamino-4-oxo-4H-thieno(2,3-d)(1,3)oxazine-6-carboxylic acid (3-phenyl-propyl)-amide] |  | 139 to 141 °C |  | 66.3%
CCCCCCCCOc1nc2sc(CCCCCCCC)c(C)c2c(=O)o1 [Entry 87] |  | 36 °C |  | 27.9%

Reference: patent publication US7064122B2, “Pancreatic lipase inhibitor compounds, their synthesis and use” (OSI Pharmaceuticals, Inc., priority 2001, dated 2006)
